The target in test [1] is T1, α-synuclein (αSyn) (Homo sapiens, UniProt P37840). The test can be described thus: split Gaussia luciferase oligomerization assay; also FRET oligomerization, ThT fibrillization, HT-CM-SPR hit (tethered). Also noted: gene SNCA; αSyn-GLuc1 and αSyn-GLuc2 (split Gaussia luciferase fragment fused to the C-terminus of αSyn); monomeric αSyn in SPR and fibrillization. The test is classed as biochemical.

Test [2] has as its target T1, α-synuclein (αSyn). The test can be described thus: split Gaussia luciferase oligomerization assay; also FRET oligomerization, HT-CM-SPR hit (tethered). The test is classed as biochemical. More on the design: gene SNCA; αSyn-GLuc1 and αSyn-GLuc2 (split Gaussia luciferase fragment fused to the C-terminus of αSyn); monomeric αSyn in SPR.

As for `CNC(=O)CN(C(=O)Cc1noc2ccccc12)C(C)c1ccc(Cl)cc1` (stereo not drawn) [compound 582032, 582032], the IC50 on α-synuclein (αSyn) [1] is 290 µM. At α-synuclein (αSyn) [1], `CNC(=O)c1cc(O)ccc1N` [compound 576755, 576755] showed an IC50 of 10.5 µM. `Cc1c(-c2csc(NC(C(N)=O)C3CCNCC3)n2)sc2ccccc12` (stereo not drawn) [compound 573437, 573437]: on α-synuclein (αSyn) [2], the IC50 was 104 µM.

Usually IC50 stands for the concentration needed to halve the response being measured. Lower therefore signals greater potency in that assay.

Source of the values: article PMC6861283, “Novel Small Molecules Targeting the Intrinsically Disordered Structural Ensemble of α-Synuclein Protect Against Diverse α-Synuclein Mediated Dysfunctions” (Scientific Reports, 2019).
